Measured values published in PubChem BioAssay (NCI).
“And” between values parts separate entries of the source, which are not always exact repeats. Identical values can stand only once.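 All cell lines were grown in 96-well plates and treated with compound for 48 hours. GI50: concentration for 50% inhibition of growth. TGI: concentration producing complete growth inhibition.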

Columns and labels:
Test in all cases: inhibition of tumour cell growth, NCI panel, 48 h
A549 NSCLC = test system: A549 NSCLC
MALME-3M melanoma = test system: MALME-3M melanoma
UACC-257 melanoma = test system: UACC-257 melanoma
RPMI-8226 leukemia = test system: RPMI-8226 leukemia
T-47D breast = test system: T-47D breast
TK-10 renal = test system: TK-10 renal
NCI-H226 lung = test system: NCI-H226 lung
KM12 colon = test system: KM12 colon
786-0 renal = test system: 786-0 renal
ACHN renal = test system: ACHN renal
UO-31 renal = test system: UO-31 renal
CAKI-1 renal = test system: CAKI-1 renal
OVCAR-5 ovarian = test system: OVCAR-5 ovarian

| Structure (SMILES) | TGI (A549 NSCLC) [µM] | TGI (MALME-3M melanoma) [µM] | TGI (UACC-257 melanoma) | TGI (RPMI-8226 leukemia) | TGI (T-47D breast) [µM] | TGI (TK-10 renal) [µM] | TGI (NCI-H226 lung) [µM] | TGI (KM12 colon) [µM] | TGI (786-0 renal) [µM] | TGI (ACHN renal) [µM] | TGI (UO-31 renal) [µM] | TGI (CAKI-1 renal) [µM] | TGI (OVCAR-5 ovarian) [µM] | GI50 (RPMI-8226 leukemia) | GI50 (KM12 colon) |
| --- | --- | --- | --- | --- | --- | --- | --- | --- | --- | --- | --- | --- | --- | --- | --- |
| CC(C)/C(Cl)=N/OC(NC(=O)Nc1ccc(Cl)c(Cl)c1)(C(F)(F)F)C(F)(F)F | 72.4 | 4.55 | 25.9 µM | 4.7 µM | 19.4 | 31.2 | 42.8 | 36.1 | 22.2 | 24.9 | 31.3 | 3.61 | 38.4 |  |  |
| CN(C)c1ccc(/C=C(\NC(=O)c2ccccc2)c2nc3ccccc3c(=O)o2)cc1 | > 100 | > 100 | > 100 µM | > 100 µM | > 100 | > 100 | > 100 | > 100 | > 100 | > 100 | > 100 | > 100 | > 100 |  |  |
| CC(=O)O[C@H]1CC[C@@]2(C)C(=CC[C@H]3[C@@H]4C[C@H](N5CCN(C)CC5)[C@H](OC(C)=O)[C@@]4(C)CC[C@@H]32)C1 | 36 | 24.8 | 17.3 µM | 14.7 µM | 41.2 | > 100 | > 85.6 | 32.3 | 35.3 | > 100 | > 90.9 | > 66.5 | 76.9 |  |  |
| CCOC(=O)NC(Nc1cccc(F)c1)(C(F)(F)F)C(F)(F)F | > 100 | > 100 | > 100 µM | > 100 µM | > 100 | > 100 | > 100 | > 100 | > 100 | > 100 | > 100 | > 100 | > 100 |  |  |
| COC(=O)C1=C(C(=O)OC)C2(c3ccccc3)c3ccccc3C(=O)C1N2C1CCCCC1 (centres undefined) | > 100 | > 100 | > 100 µM | 40.6 µM | > 100 | > 100 | > 100 | > 100 | > 100 | > 100 | > 100 | > 100 | > 100 |  |  |
| CNc1nc2c(C)ccc3nc(N(C)C)nc-3c2n1C | > 10 | > 10 | > 10 µM | > 10 µM | > 10 | > 10 | > 10 | > 10 | > 10 | > 10 | > 10 | > 10 | > 10 |  |  |
| COC(=O)C1C(O)C(C)C(O)C(C)/C=C\C=C(C)C(=O)Nc2c(C)c(OC(C)=O)c3c(c2O)C(=O)C(C)=C2OCOC(=C23)C(C)=CC(C)(O)C(O)C(C)C1O (centres undefined) | > 100 | > 100 | 55.7 µM and 62.5 µM | 41.3 µM and > 100 µM | > 100 | > 100 | > 100 | > 100 | > 100 | > 100 | > 100 | > 62.2 | > 100 | 15.9 µM and 64.3 µM | 25.1 µM and > 100 µM |
| [N-]=[N+]=NC1(c2ccccc2)C(=O)c2cccc3c4ccccc4n(c23)C1=O (centres undefined) | > 100 | > 100 | > 100 µM | > 100 µM | > 100 | > 100 | > 100 | > 100 | > 100 | > 100 | > 100 | > 100 | > 100 |  |  |
| COc1ccc(/C=C/C(=O)c2cccc(C(=O)/C=C/c3ccc(OC)c(OC)c3)n2)cc1OC | > 100 | 70.5 | 99.4 µM | > 22.6 µM | > 100 | > 100 | > 100 | > 100 | 27.5 | > 100 | 43.4 | > 100 | > 91.2 |  |  |
